From ChEMBL document CHEMBL1201862, “PubChem BioAssay data set” (2004)
Active and inactive are the calls of the source.

How the values were obtained:
[1] = molecular target: Genome polyprotein (dengue virus type 2, UniProt P29990); test: Dengue-2 NS5 methyltransferase inhibitors, primary screen, biochemical, confirmation dose response (AID 588689); format: functional
[2] = molecular target: T1, RNA-binding protein pos-1 (Caenorhabditis elegans, UniProt G5EF15); test: inhibitors of POS-1/mex-3 RNA binding, dose response, biochemical, fluorescence polarization (AID 1964);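 also: purified POS-1 fused to maltose binding protein made in E. coli; potency of compounds blocking POS-1 binding to fluorescent RNA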
T1 sequence (G5EF15 whole entry): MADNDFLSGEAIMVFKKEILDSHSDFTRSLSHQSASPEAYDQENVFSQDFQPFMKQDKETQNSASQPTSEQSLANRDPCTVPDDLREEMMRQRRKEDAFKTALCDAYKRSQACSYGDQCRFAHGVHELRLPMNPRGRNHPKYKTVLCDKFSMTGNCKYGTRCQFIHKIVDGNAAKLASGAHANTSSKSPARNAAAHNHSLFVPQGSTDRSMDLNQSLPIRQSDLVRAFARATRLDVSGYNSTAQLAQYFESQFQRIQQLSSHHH

[3] = molecular target: Keap1/Nrf2 (Homo sapiens, UniProt Q14145); test: Keap1-Nrf2 protein-protein interaction inhibitors, dose response, biochemical, fluorescence polarization, cherry-picked samples (AID 588683)
[4] = inhibitors of intracellular T. cruzi replication, confirmation, NIH3T3 host cells, beta-gal luminescence (AID 2044); format: functional, cell-based;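 also: intracellular parasites grown in NIH/3T3 mouse fibroblasts as host cells; luminescent beta-galactosidase reporter signal from transgenic T. cruzi replicating inside host cells; inhibitors lower the luminescence signal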
[5] = molecular target: T2, Sentrin-specific protease 8 (Homo sapiens, UniProt Q96LD8); format: functional
T2 sequence (Q96LD8 whole entry): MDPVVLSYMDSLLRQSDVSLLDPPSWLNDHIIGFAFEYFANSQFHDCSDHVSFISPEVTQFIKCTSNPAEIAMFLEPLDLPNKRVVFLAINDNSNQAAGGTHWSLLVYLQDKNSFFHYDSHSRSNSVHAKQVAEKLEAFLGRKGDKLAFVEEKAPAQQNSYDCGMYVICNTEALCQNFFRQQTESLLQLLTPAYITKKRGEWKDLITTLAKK

[6] = molecular target: T3, Alkaline phosphatase, tissue-nonspecific isozyme (Homo sapiens, UniProt P05186); test: inhibition of tissue-nonspecific alkaline phosphatase – biochemical, dose response (AID 488882); format: functional
T3 sequence (P05186 whole entry): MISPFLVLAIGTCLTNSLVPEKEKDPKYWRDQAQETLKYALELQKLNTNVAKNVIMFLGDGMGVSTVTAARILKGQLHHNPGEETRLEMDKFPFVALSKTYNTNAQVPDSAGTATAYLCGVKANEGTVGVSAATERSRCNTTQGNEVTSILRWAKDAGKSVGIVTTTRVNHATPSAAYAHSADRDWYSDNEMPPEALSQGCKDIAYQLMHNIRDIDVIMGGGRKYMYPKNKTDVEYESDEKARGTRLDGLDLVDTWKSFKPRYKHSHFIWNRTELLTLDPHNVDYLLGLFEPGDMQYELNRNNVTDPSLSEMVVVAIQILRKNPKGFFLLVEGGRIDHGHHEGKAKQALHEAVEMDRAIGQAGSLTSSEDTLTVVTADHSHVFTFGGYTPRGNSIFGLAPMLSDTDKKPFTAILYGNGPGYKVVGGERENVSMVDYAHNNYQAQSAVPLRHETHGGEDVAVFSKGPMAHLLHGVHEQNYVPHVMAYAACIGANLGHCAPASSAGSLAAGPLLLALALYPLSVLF

[7] = molecular target: Megakaryocyte-associated tyrosine-protein kinase (Homo sapiens, UniProt P42679); format: functional;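 also: affinity measured as one member of a kinase panel (Navigating the Kinome) against MATK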
[8] = molecular target: Ribosomal protein S6 kinase alpha-3 (Homo sapiens, UniProt P51812); format: functional;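 also: measured within a kinome-wide profiling panel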
[9] = molecular target: cGMP-dependent protein kinase 1 (Homo sapiens, UniProt Q13976); format: functional;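 also: value from a kinome panel screen with PRKG1 as the panel member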
[10] = molecular target: Phosphorylase b kinase gamma catalytic chain, liver/testis isoform (Homo sapiens, UniProt P15735); format: functional;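 also: PHKG2 measured as one member of a kinome-wide kinase panel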
[11] = molecular target: Cyclin-dependent kinase 2 (Homo sapiens, UniProt P24941); format: functional;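 also: CDK2 measured as one member of a broad kinome profiling panel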
[12] = molecular target: Aurora kinase A (Homo sapiens, UniProt O14965); format: functional;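 also: value from the Navigating the Kinome kinase panel profiling, panel entry STK6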
[13] = molecular target: MAP kinase-activated protein kinase 5 (Homo sapiens, UniProt Q8IW41); format: functional;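 also: measured as one member of a kinome panel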
[14] = molecular target: Serine/threonine-protein kinase PAK 4 (Homo sapiens, UniProt O96013); format: functional;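 also: value obtained within a kinome profiling panel in which PAK4 was one of the panel members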
[15] = molecular target: High affinity nerve growth factor receptor (Homo sapiens, UniProt P04629); format: functional;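 also: NTRK1 tested as one member of a kinome-wide profiling panel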
[16] = molecular target: Serine/threonine-protein kinase Chk1 (Homo sapiens, UniProt O14757); format: functional;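 also: measured as one member of a kinome-wide kinase profiling panel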
[17] = molecular target: Casein kinase I isoform delta (Homo sapiens, UniProt P48730); format: functional;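 also: measured as one member (CSNK1D) of a kinome panel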
Casein kinase I isoform delta, sequence (P48730 whole entry, canonical isoform): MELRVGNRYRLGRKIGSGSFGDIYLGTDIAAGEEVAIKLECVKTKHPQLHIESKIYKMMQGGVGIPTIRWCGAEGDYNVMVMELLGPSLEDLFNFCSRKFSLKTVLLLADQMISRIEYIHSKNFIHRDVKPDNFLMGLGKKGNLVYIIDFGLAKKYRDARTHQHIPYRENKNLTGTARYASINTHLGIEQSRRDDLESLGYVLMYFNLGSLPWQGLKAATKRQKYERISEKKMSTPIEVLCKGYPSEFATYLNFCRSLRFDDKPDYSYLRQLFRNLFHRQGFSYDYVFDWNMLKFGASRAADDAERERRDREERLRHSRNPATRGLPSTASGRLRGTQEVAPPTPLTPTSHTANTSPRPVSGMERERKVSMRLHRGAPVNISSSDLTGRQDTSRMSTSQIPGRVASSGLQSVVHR

Serine/threonine-protein kinase Chk1, sequence (O14757 whole entry, canonical isoform): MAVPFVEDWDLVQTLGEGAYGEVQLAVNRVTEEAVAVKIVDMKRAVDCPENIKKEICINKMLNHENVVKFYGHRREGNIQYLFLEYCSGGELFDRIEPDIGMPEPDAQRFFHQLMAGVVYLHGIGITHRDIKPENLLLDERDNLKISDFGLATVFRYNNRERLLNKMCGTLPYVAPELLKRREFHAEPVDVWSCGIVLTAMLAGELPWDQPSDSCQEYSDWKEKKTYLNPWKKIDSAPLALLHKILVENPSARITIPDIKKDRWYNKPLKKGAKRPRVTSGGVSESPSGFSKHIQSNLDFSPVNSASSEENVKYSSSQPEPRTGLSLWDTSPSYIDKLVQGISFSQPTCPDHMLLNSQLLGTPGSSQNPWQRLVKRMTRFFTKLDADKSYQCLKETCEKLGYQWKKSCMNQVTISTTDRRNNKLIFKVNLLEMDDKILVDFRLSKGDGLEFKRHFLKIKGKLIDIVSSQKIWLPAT
High affinity nerve growth factor receptor, sequence (P04629 whole entry): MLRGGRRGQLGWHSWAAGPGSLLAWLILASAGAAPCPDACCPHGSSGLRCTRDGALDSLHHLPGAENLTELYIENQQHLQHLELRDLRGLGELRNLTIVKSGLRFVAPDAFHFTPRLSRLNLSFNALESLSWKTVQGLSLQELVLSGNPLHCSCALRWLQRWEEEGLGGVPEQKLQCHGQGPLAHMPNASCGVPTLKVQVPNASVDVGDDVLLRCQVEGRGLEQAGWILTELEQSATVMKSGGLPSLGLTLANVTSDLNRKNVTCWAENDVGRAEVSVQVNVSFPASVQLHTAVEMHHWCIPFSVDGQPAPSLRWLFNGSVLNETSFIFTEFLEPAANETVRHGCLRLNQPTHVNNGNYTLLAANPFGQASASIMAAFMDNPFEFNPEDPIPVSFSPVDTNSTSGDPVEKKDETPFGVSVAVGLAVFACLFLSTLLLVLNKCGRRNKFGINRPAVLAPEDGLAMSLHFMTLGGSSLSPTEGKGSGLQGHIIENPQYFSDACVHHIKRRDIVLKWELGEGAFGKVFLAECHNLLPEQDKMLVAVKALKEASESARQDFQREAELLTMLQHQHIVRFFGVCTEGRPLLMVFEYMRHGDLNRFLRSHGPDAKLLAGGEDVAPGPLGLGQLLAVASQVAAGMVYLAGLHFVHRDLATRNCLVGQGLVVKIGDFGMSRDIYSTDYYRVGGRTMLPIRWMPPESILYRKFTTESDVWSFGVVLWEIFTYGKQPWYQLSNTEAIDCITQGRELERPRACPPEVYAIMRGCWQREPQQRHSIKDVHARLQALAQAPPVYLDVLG
Ribosomal protein S6 kinase alpha-3, sequence (P51812 whole entry): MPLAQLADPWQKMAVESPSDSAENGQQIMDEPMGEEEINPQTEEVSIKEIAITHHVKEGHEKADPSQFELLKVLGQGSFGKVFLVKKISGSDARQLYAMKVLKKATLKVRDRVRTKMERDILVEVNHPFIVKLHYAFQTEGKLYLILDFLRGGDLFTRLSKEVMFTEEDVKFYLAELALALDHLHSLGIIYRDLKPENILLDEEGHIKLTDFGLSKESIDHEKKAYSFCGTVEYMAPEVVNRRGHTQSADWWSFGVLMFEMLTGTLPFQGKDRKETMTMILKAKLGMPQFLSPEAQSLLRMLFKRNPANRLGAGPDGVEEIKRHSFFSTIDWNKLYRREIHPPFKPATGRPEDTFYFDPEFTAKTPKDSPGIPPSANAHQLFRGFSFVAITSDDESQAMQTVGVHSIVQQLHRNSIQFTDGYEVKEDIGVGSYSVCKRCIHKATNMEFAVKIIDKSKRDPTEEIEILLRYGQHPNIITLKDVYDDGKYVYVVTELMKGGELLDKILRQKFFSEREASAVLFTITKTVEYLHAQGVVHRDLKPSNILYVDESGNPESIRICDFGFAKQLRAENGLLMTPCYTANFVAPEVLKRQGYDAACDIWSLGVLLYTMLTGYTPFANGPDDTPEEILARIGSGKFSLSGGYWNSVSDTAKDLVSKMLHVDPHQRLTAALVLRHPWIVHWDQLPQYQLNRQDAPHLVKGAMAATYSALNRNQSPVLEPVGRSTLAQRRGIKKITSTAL
Phosphorylase b kinase gamma catalytic chain, liver/testis isoform, sequence (P15735 whole entry, canonical isoform): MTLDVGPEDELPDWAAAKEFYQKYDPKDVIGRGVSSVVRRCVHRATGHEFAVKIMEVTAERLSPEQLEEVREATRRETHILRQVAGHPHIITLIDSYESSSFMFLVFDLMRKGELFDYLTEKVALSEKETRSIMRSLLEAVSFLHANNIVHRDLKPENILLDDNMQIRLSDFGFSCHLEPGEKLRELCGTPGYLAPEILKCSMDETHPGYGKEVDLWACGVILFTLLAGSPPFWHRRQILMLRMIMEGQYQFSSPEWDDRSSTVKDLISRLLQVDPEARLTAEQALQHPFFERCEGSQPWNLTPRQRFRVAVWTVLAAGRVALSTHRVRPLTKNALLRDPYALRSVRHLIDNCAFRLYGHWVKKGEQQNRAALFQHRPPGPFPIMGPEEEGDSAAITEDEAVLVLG
cGMP-dependent protein kinase 1, sequence (Q13976 whole entry, canonical isoform): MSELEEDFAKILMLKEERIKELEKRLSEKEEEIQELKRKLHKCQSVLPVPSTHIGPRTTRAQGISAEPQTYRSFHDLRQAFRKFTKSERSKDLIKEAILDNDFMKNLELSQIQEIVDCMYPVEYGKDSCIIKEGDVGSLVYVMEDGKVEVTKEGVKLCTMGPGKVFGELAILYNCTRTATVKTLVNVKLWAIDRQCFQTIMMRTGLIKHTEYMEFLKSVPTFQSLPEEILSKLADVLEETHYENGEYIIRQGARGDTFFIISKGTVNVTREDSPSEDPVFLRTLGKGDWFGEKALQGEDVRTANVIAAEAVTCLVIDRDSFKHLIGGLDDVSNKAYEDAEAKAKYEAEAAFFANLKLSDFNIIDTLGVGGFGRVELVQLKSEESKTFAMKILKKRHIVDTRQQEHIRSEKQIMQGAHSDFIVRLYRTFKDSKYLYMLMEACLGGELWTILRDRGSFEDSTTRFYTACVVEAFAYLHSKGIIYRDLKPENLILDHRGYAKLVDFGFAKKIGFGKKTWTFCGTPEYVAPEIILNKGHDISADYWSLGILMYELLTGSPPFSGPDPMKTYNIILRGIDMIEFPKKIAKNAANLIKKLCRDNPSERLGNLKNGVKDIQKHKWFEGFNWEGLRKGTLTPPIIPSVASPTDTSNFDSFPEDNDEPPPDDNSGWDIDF
Genome polyprotein, sequence (P29990 2492-3391 limits assumed): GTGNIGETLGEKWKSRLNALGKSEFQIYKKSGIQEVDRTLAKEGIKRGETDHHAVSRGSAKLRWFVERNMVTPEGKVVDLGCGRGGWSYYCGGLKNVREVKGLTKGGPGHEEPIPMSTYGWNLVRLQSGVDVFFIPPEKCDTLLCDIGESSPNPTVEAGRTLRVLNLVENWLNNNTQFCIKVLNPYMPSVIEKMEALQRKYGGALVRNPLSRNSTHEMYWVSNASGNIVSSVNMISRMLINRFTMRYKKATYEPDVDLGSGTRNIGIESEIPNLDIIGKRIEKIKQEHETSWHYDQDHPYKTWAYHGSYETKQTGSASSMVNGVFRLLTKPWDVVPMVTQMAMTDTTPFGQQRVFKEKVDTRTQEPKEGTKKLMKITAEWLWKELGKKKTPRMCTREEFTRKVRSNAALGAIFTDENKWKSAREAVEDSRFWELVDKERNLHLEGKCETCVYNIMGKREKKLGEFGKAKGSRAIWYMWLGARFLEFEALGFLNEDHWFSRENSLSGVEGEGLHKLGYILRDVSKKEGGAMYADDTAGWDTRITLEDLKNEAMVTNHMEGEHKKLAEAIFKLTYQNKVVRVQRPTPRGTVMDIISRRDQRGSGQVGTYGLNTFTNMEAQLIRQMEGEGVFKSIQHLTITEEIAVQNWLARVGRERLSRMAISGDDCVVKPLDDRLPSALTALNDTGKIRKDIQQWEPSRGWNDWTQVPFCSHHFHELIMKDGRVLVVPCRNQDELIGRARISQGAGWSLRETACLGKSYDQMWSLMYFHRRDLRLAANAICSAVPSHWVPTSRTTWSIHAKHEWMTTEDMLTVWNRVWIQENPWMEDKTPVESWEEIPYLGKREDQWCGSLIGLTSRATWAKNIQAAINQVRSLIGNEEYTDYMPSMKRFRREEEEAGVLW
MAP kinase-activated protein kinase 5, sequence (Q8IW41 whole entry): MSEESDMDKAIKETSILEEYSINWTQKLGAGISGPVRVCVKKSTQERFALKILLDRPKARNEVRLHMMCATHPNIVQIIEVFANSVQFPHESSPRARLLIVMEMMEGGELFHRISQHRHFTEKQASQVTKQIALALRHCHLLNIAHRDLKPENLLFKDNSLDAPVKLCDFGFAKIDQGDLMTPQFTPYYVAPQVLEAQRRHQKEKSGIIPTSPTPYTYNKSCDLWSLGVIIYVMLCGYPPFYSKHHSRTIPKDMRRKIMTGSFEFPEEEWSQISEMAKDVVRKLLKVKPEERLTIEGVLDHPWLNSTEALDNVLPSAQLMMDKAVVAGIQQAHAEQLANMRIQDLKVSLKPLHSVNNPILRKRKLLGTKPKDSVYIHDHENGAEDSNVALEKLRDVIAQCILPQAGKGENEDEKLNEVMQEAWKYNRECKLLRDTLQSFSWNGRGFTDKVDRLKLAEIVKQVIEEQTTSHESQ

Compound: O=C1N=C(NS(=O)(=O)Cc2ccccc2)S/C1=C1\C(=O)Nc2ccccc21
- IC50 [1]: 51.6 µM (active)

Compound: O=C(O)C1Nc2c(O)cc(Cl)c([N+](=O)[O-])c2C2C=CCC12 (stereo not drawn)
- EC50 [2]: 216 µM (inconclusive)
- AC50 [3]: > 52 µM (inactive)

Compound: O=C(CCc1ccccc1)NNc1cc(N2CCCCC2)nc(N2CCCCC2)n1
- EC50 [4]: 3.74 µM (active)
- IC50 [5]: 0.605 µM (active)

Compound: Oc1ccc(N=Nc2c(O)ccc3ccccc23)cc1
- IC50 [6]: 16.5 µM (active)

Compound: Cc1n[nH]c2ccc(-c3cncc(OCC(N)Cc4cccc(Cl)c4)c3)cc12 (stereo not drawn)
- Ki [7]: > 2 µM (inactive)
- Ki [8]: 0.0158 µM (active)
- Ki [9]: 0.01 µM (active)
- Ki [10]: 0.794 µM (active)
- Ki [11]: 0.0251 µM (active)
- pKi [11]: 7.6
- Ki [12]: 0.631 µM (active)
- Ki [13]: > 1.58 µM (inactive)
- Ki [14]: 0.0316 µM (active)
- Ki [15]: > 2.51 µM (inactive)
- Ki [16]: 6.31 µM (active)
- Ki [17]: 0.0316 µM (active)
